# Test results from US20150125904A1, “PROBE INCORPORATION MEDIATED BY ENZYMES” (Massachusetts Institute of Technology, priority 2012, published 2015).
# Where two headings read alike, the source gives them in different places.
# Columns and labels:
# [1] = molecular target: T1, WTLplA / LAP-YFP in HEK cells (Escherichia coli, UniProt P32099); assay: Azide ligation yield in cells (native gel shift of LAP-YFP), wild-type LplA; assay type: cell-based, E. coli
# T1 construct: expressed in transfected cells; host or cells: HEK cells
# Protocol: (§1) For azide 7 ligation, cells were transfected with 50 ng WTLplA and 1000 ng pcDNA3-LAP-YFP. For azide 9 ligation, cells were transfected with 500 ng W37ILplA and either 1000 ng pcDNA3-LAP-YFP or pcDNA3-LAP(K⋄A)-YFP using Lipofectamine 2000 (Life Technologies). The LplA:LAP plasmid ratios are identical to the conditions used for imaging. 18 hr after transfection, cells were incubated in growth media (MEM supplemented with 10% FBS) containing 200 μM azide 7 or azide 9 for 30 min or 1 hr at 37° C. Excess azide probe was washed out over 1 hr. […] Cells were then centrifuged at 13,000 rpm for 2 min, and the supernatant was analyzed on a 12% polyacrylamide native gel without SDS (5 μL lysate per lane) at constant 200 V. Prior to Coomassie staining, in-gel fluorescence of YFP was visualized on a FUJIFILM FLA-9000 instrument using LD473 laser and Long Pass Blue (LPB) filter. […]
# (§2) We also used a gel shift assay as a separate readout of azide ligation yield inside cells. […] The yield of azide ligation to LAP-YFP was determined by shift on a native polyacrylamide gel. The unmodified fusion protein, visualized by YFP fluorescence, runs at an apparent molecular weight of ˜42 kD. […]
# Trp37→Ile LplA = Trp37→Ile LplA (Escherichia coli, UniProt P32099, W38I); conditions: 30 min reaction, 500 μM probe; normalized to TCO2/Trp37→Val
# Protocol: LplA protein was purified as previously described2 and stored at −80° C. in 20 mM Tris-HCl, pH 7.5 supplementated with 10% v/v glycerol. Reactions were quenched with 30 mM EDTA (final concentration) and resolved by HPLC (Varian ProStar) on a C-18 column using a linear gradient of 25-60% acetonitrile in H2O (with 0.1% v/v trifluoroacetic acid) over 14 minutes. Species were detected at 210 nm absorbance. Peaks corresponding to LAP and its trans-cyclooctene adducts were confirmed by ESI mass spectrometry. The extent of conversion was calculated from ratios of peak areas, neglecting minor extinction coefficient changes to LAP due to trans-cyclooctene ligation.
# The relative abilities of wild-type and mutant ligases to ligate TCO1-3 onto LplA acceptor peptide (LAP) were measured by an HPLC assay after 30 min. reaction time. […] Errors, ±1 s. d.
# W37VLplA = W37VLplA (Escherichia coli, UniProt P32099, W38V); conditions: 500 μM probe, 500 μM LAP, 30° C.
# Protocol: After 5, 10, 15 and 20 minutes, an aliquot was drawn from the reaction vial, quenched with 30 mM EDTA (final concentration) and the product quantified by HPLC as in Table 3. The plot of product concentration against time was fitted to a linear line whose slope corresponds to the initial velocity. The value of kcat was calculated from the Michaelis-Menten equation Vmax=(kcat)([Enzyme]) at substrate-saturating conditions. Measurements were performed in triplicate.
# W37ILplA [2] = molecular target: T2, W37ILplA (Escherichia coli, UniProt P32099, W38I); assay: In vitro screening for Ald and Hyd ligation activity (HPLC); assay type: biochemical, E. coli; conditions: 1 μM W37ILplA, 500 μM probe
# T2 construct: His6 (N); made in house; host or cells: E. coli
# Protocol: Ligation reactions were assembled as follows: 1 μM of purified LplA mutant (Uttamapinant, et al., 2010), 150 μM synthetic LAP2 peptide ([…]; SEQ ID NO:4), 5 mM ATP, 500 μM of either Ald or Hyd probe, 5 mM magnesium acetate, and 25 mM Na2HPO4 pH 7.2 in a total volume of 20 μL. Reactions were incubated for 5 to 60 min at 30° C. and then quenched with EDTA to a final concentration of 45 mM. Samples were diluted to a total volume of 80 μL in conjugation buffer (10 mM Na2HPO4, 3.2 mM KH2PO4, 2.7 mM KCl, 140 mM NaCl, pH 5.0) and analyzed on a Varian Prostar HPLC using a reverse-phase C18 Microsorb-MV 100 column (250×4.6 mm). Chromatograms were recorded at 210 nm. For analysis of the aldehyde ligation reaction we used a 10-minute gradient of 30-60% acetonitrile in water with 0.1% trifluoroacetic acid under 1 mL/minute flow rate. For analysis of the hydrazine ligation reaction a gradient of 25-60% over 14 minutes with the same solvents was used. Percent conversions were calculated by dividing the product peak area by the sum of (product+starting material) peak areas. Reactions were performed in triplicate (Ald) or duplicate (Hyd) and the average values are shown. Reactions in FIG. 27C were performed using the conditions above with a 70 minute reaction time for Ald and 120 minute reaction time for Hyd.
# W37ILplA [3] = molecular target: T2, W37ILplA; assay: Measurement of kcat values for Ald and Hyd ligation; assay type: biochemical, E. coli; conditions: for Vmax / kcat: 1 μM W37ILplA, 600 μM LAP, 500 μM probe
# Protocol: Values of kcat for W37ILplA ligation of the Ald and Hyd probes onto LAP peptide were determined by measuring the initial reaction rates by HPLC. The conditions used were as follows: 1 μM W37ILplA, 600 μM LAP, 500 μM of Ald or Hyd, 2 mM magnesium acetate, and 25 mM sodium phosphate buffer, pH 7.2. Each initial rate was measured in triplicate and the average value reported. The error shown represents ±1 s.d. The equation kcat=Vmax/[E] was used to determine the kcat value.
# W37ILplA [4] = molecular target: T2, W37ILplA; assay type: biochemical, E. coli
# Protocol: Reactions were quenched with 40 mM EDTA (ethylenediaminetetraacetic acid, final concentration). Percent conversion to LAP-azide adduct was determined by HPLC with a C18 reverse phase column, recording absorbance at 210 nm. Elution conditions were 30-60% acetonitrile in water with 0.1% trifluoroacetic acid over 20 minutes at 1.0 mL/min flow rate. The percent conversion was calculated from the ratio of LAP-azide to sum of (unmodified LAP+LAP-azide). Reactions containing 1 μM LplA enzyme, 500 μM azide 9, and 300 μM LAP peptide were incubated at 30° C. for 2 hours. To determine kinetic measurements, reactions containing 100 nM W37ILplA, 25-700 μM azide 9, and 600 μM LAP peptide were incubated at 30° C., before quenching at various time points with EDTA.
# Reactions were set up as described in the main text. Aliquots were taken and quenched before product conversion exceeded 5%. To calculate initial rates, we determined the amount of product at each time point by generating a calibration curve using purified LAP and LAP-azide 9 mixed at different ratios. This curve correlated the measured ratio of integrated HPLC peak areas to the actual ratio, i.e. adjusted for any differences in extinction coefficient of LAP vs. LAP-azide 9. Initial rates (Vo) were determined at each azide 9 concentration, by plotting the amount of LAP-azide 9 product against time. The slope of the line gives Vo. Vo values were then plotted against azide 9 concentration in FIG. S3C, and Origin 8.5.1 was used to fit the curve to the Michaelis-Menten equation Vo=Vmax[azide 9]/(Km+[azide 9]). From the Vmax, kcat was calculated using Vmax=kcat[E]total. Measurements of Vo values at each azide 9 concentration were performed in triplicate.
# [5] = molecular target: T3, W37ILplA / LAP-YFP in HEK cells (Escherichia coli, UniProt P32099, W38I); assay: Azide ligation yield in cells (native gel shift of LAP-YFP), W37ILplA; assay type: cell-based, E. coli
# T3 construct: expressed in transfected cells; host or cells: HEK cells
# Protocol: as §1, §2
# [6] = system: LAP-LDL receptor on HEK cells; assay: Live cell surface fluorogenic labeling without dye washout; assay type: cell-based, human; conditions: 50 nM, without rinsing
# Protocol: After 5 rinses with Tyrode's buffer, the chamber was placed on the microscope objective covered with 200 μL of the same buffer. Image acquisition sequence was initiated immediately after 200 μL of 100 nM Tz1-fluorescein in Tyrode's buffer was added to the chamber, and briefly mixed by pipeting. Final concentration of Tz1-fluorescein was therefore 50 nM after mixing. LAP-LDL receptor and a mCherry fluorescent protein transfection marker were transfected at a 1:1 ratio, with altogether 400 ng plasmid per 1 cm^2 culture.
# To quantify the imaging signal/noise ratio, 17 cells with obvious surface fluorescence (by eye) at the 180 sec. time point were chosen and separate masks created automatically by the Slidebook software over the fluorescent rims. The averaged pixel intensity was defined as “signal”. To measure noise, 10 cells with no obvious surface fluorescence (by eye) at the 180 sec. time point were chosen, and rectangular masks created manually over the interiors of these cells. The averaged (over all 10 masks) pixel intensity was defined as “noise”.
# [7] = In vitro second-order Diels-Alder cycloaddition rate constant; conditions: DPBS, pseudo-first-order approximation
# Protocol: Ligation reaction was allowed to proceed at 30° C. for 4 hours to maximize ligation yield. The mixture was then resolved by preparatory HPLC on a C-18 column (25-45% acetonitrile over 30 min. linear gradient, supplemented with 0.1% v/v trifluoroacetic acid), where the product eluted at 19 min. and its identity confirmed by ESI mass spectrometry. The eluate was freeze-dried into a white powder and dissolved in DPBS for subsequent measurements.
# To measure second-order rate constant by pseudo-first-order approximation, 100 μL Tz1- or Tz2-fluorescein (100 nM in DPBS) was loaded into an opaque, flat-bottom 96-well plate (Greiner Bio One), then mixed with 100 μL LAP-TCO2 (3.3 μM in DPBS). The fluorescence intensity at 520 nm was immediately recorded at 9-second intervals until the reaction reached completion in approximately 5 minutes. The fluorescence intensity was then converted to [tetrazine-fluorescein], assuming that initial fluorescence corresponded to 50 nM and final fluorescence corresponded to 0 nM tetrazine-fluorescein. […] Measurements were performed in triplicate.
# [8] = Tetrazine-dye fluorescence turn-on after Diels-Alder cycloaddition; assay type: physicochemical; conditions: DPBS pH 7.4, >100-fold excess TCO1
# Protocol: Tetrazine-fluorophore conjugates were dissolved in Dulbecco's phosphate buffered saline, pH 7.4 at approximately 100 nM concentration. Solutions with >100-fold excess TCO1 in DMSO or DMSO vehicle alone added were transferred into an opaque, flat-bottom 96-well plate (Greiner Bio One) and their fluorescence emission scanned with a Safire Tecan fluorescence microplate reader. Excitation was fixed at 430 nm for fluorescein, 530 nm for TMR, and 610 nm for Alexa 647. Fold-changes in fluorescence turn-on are reported at respective fluorescence emission maximum wavelengths.
# [9] = 100 nM W37ILplA, 600 μM LAP, 30° C.
# T2 sequence (P32099 2-338 W38I): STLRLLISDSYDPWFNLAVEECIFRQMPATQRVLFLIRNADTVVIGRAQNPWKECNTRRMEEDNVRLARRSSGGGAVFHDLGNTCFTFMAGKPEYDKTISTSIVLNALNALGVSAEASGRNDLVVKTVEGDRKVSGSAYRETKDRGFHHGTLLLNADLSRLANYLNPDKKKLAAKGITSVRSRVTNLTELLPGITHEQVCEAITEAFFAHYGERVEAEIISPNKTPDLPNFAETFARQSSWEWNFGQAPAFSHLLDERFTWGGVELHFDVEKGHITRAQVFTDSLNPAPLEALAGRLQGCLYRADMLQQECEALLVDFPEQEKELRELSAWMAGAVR
# T3 sequence (P32099 2-338 W38I): as above
# T1 sequence (P32099 2-338): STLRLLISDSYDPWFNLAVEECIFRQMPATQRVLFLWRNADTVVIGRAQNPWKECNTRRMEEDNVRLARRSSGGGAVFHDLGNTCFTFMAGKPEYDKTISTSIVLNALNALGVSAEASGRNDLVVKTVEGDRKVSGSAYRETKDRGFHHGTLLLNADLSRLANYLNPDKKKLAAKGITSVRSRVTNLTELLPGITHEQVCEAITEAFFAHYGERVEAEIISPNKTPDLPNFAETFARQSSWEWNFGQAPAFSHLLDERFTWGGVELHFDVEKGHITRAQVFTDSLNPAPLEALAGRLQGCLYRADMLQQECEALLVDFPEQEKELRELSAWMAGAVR
# Trp37→Ile LplA, sequence (P32099 2-338 W38I): as the sequence (P32099 2-338 W38I) above
# W37VLplA, sequence (P32099 2-338 W38V): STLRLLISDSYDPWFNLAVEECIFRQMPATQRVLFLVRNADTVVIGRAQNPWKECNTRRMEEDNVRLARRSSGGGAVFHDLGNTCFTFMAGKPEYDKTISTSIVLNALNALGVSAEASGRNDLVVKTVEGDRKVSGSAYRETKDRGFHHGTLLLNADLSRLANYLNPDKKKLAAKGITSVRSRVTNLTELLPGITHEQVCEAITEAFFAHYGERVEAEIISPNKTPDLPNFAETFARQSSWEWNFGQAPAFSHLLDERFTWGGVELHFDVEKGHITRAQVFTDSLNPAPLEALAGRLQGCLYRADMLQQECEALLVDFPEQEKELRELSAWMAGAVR
compound,measurement,setting,value
2-Azidomethyl-4-chloropyridine [Azide 7],"ligation yield in cells, repeat of the experiment",[1]; 50 ng WTLplA plasmid,67%
same,ligation yield in cells,"[1]; 200 μM azide, 1 hour labeling, densitometry",73%
"O=C(O)CCCNC(=O)O[C@H]1CC/C=C/CCC1 (stereo in doubt) [TCO1, rel-(1R-4E-pR)-cyclooct-4-ene-1-yl-N-butyric acid carbamate]","Ligation efficiency (average, normalized product percentage), Trp37→Ile",Trp37→Ile LplA,0.5 ± 0.4%
"O=C(O)CCCCNC(=O)O[C@H]1CC/C=C/CCC1 (stereo in doubt) [TCO2, rel-(1R-4E-pR)-cyclooct-4-ene-1-yl-N-pentanoic acid carbamate]",Michaelis-Menten kcat of ligation onto LAP,W37VLplA,0.34 ± 0.02 s⁻¹
O=Cc1ccc(C(=O)NCCCCC(=O)O)cc1 [Ald],reaction completion,"W37ILplA [2]; 150 μM LAP peptide, 5 minutes",62%
same,activity of Ald versus Hyd,W37ILplA [3],ten-fold greater activity
same,Vmax,W37ILplA [3],19.7 ± 0.7 µM/min
same,kcat,W37ILplA [3],0.33 ± 0.01 s⁻¹
NNc1ccc(C(=O)NCCCCC(=O)O)cn1 [Hyd],reaction completion,W37ILplA [2]; 60 min,50%
same,Vmax,W37ILplA [3],1.25 ± 0.16 µM/min
same,kcat,W37ILplA [3],0.021 ± 0.003 s⁻¹
"[N-]=[N+]=NCCCCCCCCCC(=O)O [azide 9, 10-azidodecanoic acid]",Km lower than azide 7 ligation catalyzed by wild-type LplA,W37ILplA [4],4 fold
same,improvement in kcat/Km over azide 7 ligation catalyzed by wild-type LplA,W37ILplA [4],2 fold
same,kcat reduced compared to azide 7 ligation catalyzed by wild-type LplA,W37ILplA [4],1.8 fold
same,Km,W37ILplA [4]; [9],35 µM
same,kcat,W37ILplA [4]; [9],0.0603 s⁻¹
same,"ligation yield in cells, repeat of the experiment",[5]; 500 ng W37ILplA plasmid,89%
same,ligation yield in cells,"[5]; 200 μM azide, 30 minutes incubation",nearly quantitative
Aminobenzyltetrazine carboxyfluorescein [Tz1-fluorescein],time to saturation of signal-to-noise ratio,[6],approximately 3 minutes
same,second order rate constant for reaction with TCO2-ligated LAP,[7],5000 ± 700 M⁻¹ s⁻¹
same,increase in fluorescein emission upon reaction with excess trans-cyclooctene,[8],13.4 fold
